Laboratory results: paper PMC6385310 (Scientific Reports, 2019)
“And” between values parts separate entries of the source, which are not always exact repeats. Equal values may be shown once. Read-outs that look alike come from different tables or passages of the source.

Columns and labels:
[1] = tested on: VEEV TC-83 virus expressing a luciferase reporter gene (TC-83-luc); assay: microbe, parasite or virus in culture; format: cell-based, Venezuelan equine encephalitis virus
[2] = tested on: VEEV TC83; assay: microbe, parasite or virus in culture; format: cell-based; conditions: Venezuelan equine encephalitis virus, Vero, 16 h, read-out: Titre reduction (%)
[3] = tested on: nuclear import of VEEV CP-GFP fusion protein; assay: cells; format: cell-based; conditions: for inhibition at 200 µM: Venezuelan equine encephalitis virus, HeLa, 2 h, read-out: inhibition of nuclear import of CP-GFP (FRAP, Fn(rec)max); for inhibition of nuclear import of CP-GFP (FRAP, Fn(rec)max): 200 µM
[4] = tested on: VEEV CP nuclear accumulation; format: cell-based, Venezuelan equine encephalitis virus
[5] = tested on: VEEV TC-83 virus expressing a luciferase reporter gene (TC-83-luc); conditions: read-out: anti-VEEV activity EC50; cited from earlier work
[6] = in vitro; conditions: African green monkey
[7] = tested on: Vero cells; conditions: cited from earlier work
[8] = tested on: Vero cells
[9] = Venezuelan equine encephalitis virus, Vero, read-out: EC50, concentration yielding 50% inhibition of viral replication
[10] = read-out: EC50, concentration yielding 50% inhibition of viral replication
[11] = Venezuelan equine encephalitis virus, Vero, read-out: EC50, µM (cells printed ND)

| Structure (SMILES) | EC50 [1, 9] | EC50 [1, 10] | inhibition at 10 µM [2] | CC50 [6] | SI, selectivity index (CC50/EC50) [1] | further results |
| --- | --- | --- | --- | --- | --- | --- |
| CC#C[C@]1(O)CC[C@H]2[C@@H]3CCC4=CC(=O)CCC4=C3[C@@H](c3ccc(N(C)C)cc3)C[C@@]21C [Compound 1, mifepristone, reference compound] | 19.9 ± 2.7 µM | 19.9 ± 2.7 µM | 93.7 ± 19.6% | 165 µM |  | inhibition at 200 µM [3]: ~30%; nuclear accumulation of CP in infected cells (Fn/c) [4]: reduced the nuclear accumulation of CP; EC50 [5]: 20 µM; CC50 [7]: > 100 µM |
| CC#C[C@]1(O)CC[C@H]2[C@@H]3CCC4=CC(=O)CCC4=C3[C@@H](c3ccc(NC)cc3)C[C@@]21C [Compound 6, Desmethyl-mifepristone, reference compound] |  |  |  |  |  | detectable antiviral (anti-VEEV) activity, in words [1]: eliminated any detectable antiviral activity |
| C/C=C\[C@]1(O)CC[C@H]2[C@@H]3CCC4=CC(=O)CCC4=C3[C@@H](c3ccc(N(C)C)cc3)C[C@@]21C [Compound 7, Aglepristone, reference compound] |  | 25.3 µM |  |  |  | CC50 [8]: > 100 µM |
| CN(C)c1ccc([C@H]2C[C@@]3(C)[C@@H](CC[C@@]3(O)C#CC(F)(F)F)[C@@H]3CC[C@@]4(O)CC5(CCC4=C32)OCCO5)cc1 [Compound 8] | 27.6 µM |  |  | > 100 µM | 27.6 ± 5.1 >100 >3.6 |  |
| CN(C)c1ccc([C@H]2C[C@@]3(C)[C@@H](CC[C@@]3(O)C#CC(F)(F)F)[C@@H]3CCC4=CC(=O)CCC4=C32)cc1 [Compound 9, Trifluoromethylmifepristone] | 17.8 ± 1.7 µM |  |  | > 100 µM |  | detectable antiviral (anti-VEEV) activity, in words [1]: did not significantly alter the activity of the analogue from 1 |
| CN(C)c1ccc([C@H]2C[C@@]3(C)[C@@H](CC[C@@]3(O)C#CCO)[C@@H]3CCC4=CC(=O)CCC4=C32)cc1 [Compound 11] |  |  |  | > 100 µM |  | detectable antiviral (anti-VEEV) activity, in words [1]: abolished any detectable antiviral activity; EC50 [1, 11]: > 100 µM |
| CN(C)c1ccc([C@H]2C[C@@]3(C)[C@@H](CC[C@@]3(O)/C=C\CO)[C@@H]3CCC4=CC(=O)CCC4=C32)cc1 [Compound 13, Lilopristone, reference compound] |  |  |  | > 100 µM |  | detectable antiviral (anti-VEEV) activity, in words [1]: abolished any detectable antiviral activity; EC50 [1, 11]: > 100 µM |
| CC(=O)O[C@]1(C(C)=O)CC[C@H]2[C@@H]3CCC4=CC(=O)CCC4=C3[C@@H](c3ccc(N(C)C)cc3)C[C@@]21C [Compound 21, Ulipristal Acetate, reference compound] | 11.5 µM | 11.5 ± 7 µM |  | > 100 µM | >8.67 |  |
| CN(C)c1ccc([C@H]2C[C@@]3(C)[C@@H](CC[C@@]3(O)C#C[Si](C)(C)C)[C@@H]3CC[C@@]4(O)CC5(CCC4=C32)OCCO5)cc1 [Compound 30] | 11.1 ± 1.9 µM |  | 88.4 ± 4.8% | > 100 µM | >9.0 |  |
| CC[Si](C#C[C@]1(O)CC[C@H]2[C@@H]3CC[C@@]4(O)CC5(CCC4=C3[C@@H](c3ccc(N(C)C)cc3)C[C@@]21C)OCCO5)(CC)CC [Compound 31] | 4.7 µM |  | 93.9 ± 3.2% | > 100 µM | 4.7 ± 0.5 >100 >21.5 |  |
| CC(C)[Si](C#C[C@]1(O)CC[C@H]2[C@@H]3CC[C@@]4(O)CC5(CCC4=C3[C@@H](c3ccc(N(C)C)cc3)C[C@@]21C)OCCO5)(C(C)C)C(C)C [Compound 32] | 22 µM |  | 89.7 ± 4.6% | > 100 µM | 22.0 ± 6.1 >100 >4.5 |  |
| CN(C)c1ccc([C@H]2C[C@@]3(C)[C@@H](CC[C@@]3(O)C#C[Si](C)(C)C)[C@@H]3CCC4=CC(=O)CCC4=C32)cc1 [Compound 33] | < 10 µM | 8.49 µM and 8.5 µM |  | > 100 µM |  | inhibition at 200 µM [3]: ~30% |
| CC[Si](C#C[C@]1(O)CC[C@H]2[C@@H]3CCC4=CC(=O)CCC4=C3[C@@H](c3ccc(N(C)C)cc3)C[C@@]21C)(CC)CC [Compound 34] |  |  | 95.8 ± 1.9% | > 100 µM |  | inhibition at 200 µM [3]: ~30% |
| CC(C)[Si](C#C[C@]1(O)CC[C@H]2[C@@H]3CCC4=CC(=O)CCC4=C3[C@@H](c3ccc(N(C)C)cc3)C[C@@]21C)(C(C)C)C(C)C [Compound 35] | 16.3 ± 4.7 µM | 16.3 µM |  | > 100 µM |  |  |
| CN(C)c1ccc([C@H]2C[C@@]3(C)[C@@H](CC[C@@]3(O)C#Cc3ccccc3)[C@@H]3CC[C@@]4(O)CC5(CCC4=C32)OCCO5)cc1 [Compound 36] | 7.2 µM |  | 53.9 ± 18.8% | > 100 µM | 7.2 ± 2.3 >100 >14.0 |  |
| COc1ccc(C#C[C@]2(O)CC[C@H]3[C@@H]4CC[C@@]5(O)CC6(CCC5=C4[C@@H](c4ccc(N(C)C)cc4)C[C@@]32C)OCCO6)cc1 [Compound 37] |  |  | 67.1 ± 12.2% | > 100 µM |  | inhibition of nuclear import of CP-GFP (FRAP, Fn(rec)max) [3]: did not significantly alter CP nuclear import dynamics |
| CN(C)c1ccc([C@H]2C[C@@]3(C)[C@@H](CC[C@@]3(O)C#Cc3ccccc3)[C@@H]3CCC4=CC(=O)CCC4=C32)cc1 [Compound 38] | 8.46 ± 1.7 µM | 8.5 µM | 69.7 ± 15.4% | > 100 µM | >11.82 and 8.5 ± 1.7 >100 >11.8 |  |
| COc1ccc(C#C[C@]2(O)CC[C@H]3[C@@H]4CCC5=CC(=O)CCC5=C4[C@@H](c4ccc(N(C)C)cc4)C[C@@]32C)cc1 [Compound 39] | < 10 µM | 5.23 µM and 5.2 µM | 47.4 ± 21.4% | > 100 µM |  | inhibition of nuclear import of CP-GFP (FRAP, Fn(rec)max) [3]: did not significantly alter CP nuclear import dynamics |
| C[C@]12C[C@H](c3ccccc3)C3=C4CCC5(C[C@]4(O)CC[C@H]3[C@@H]1CC[C@@]2(O)C#C[Si](C)(C)C)OCCO5 [Compound 45] | 2.6 ± 0.4 µM |  | 95.4 ± 4.1% | > 100 µM | >38.7 |  |
| COc1ccc(C2C[C@@]3(C)[C@@H](CC[C@@]3(O)C#C[Si](C)(C)C)[C@@H]3CCC4=CC(=O)CCC4=C23)cc1 (stereo partly drawn) [Compound 51] | 22.5 ± 2.4 µM |  |  | > 100 µM | >4.5 |  |
| C[C@]12C[C@H](c3ccc(-c4ccccc4)cc3)C3=C4CCC(=O)C=C4CC[C@H]3[C@@H]1CC[C@@]2(O)C#C[Si](C)(C)C [Compound 53] | 5 ± 0.7 µM |  | 91.1 ± 5.4% | > 100 µM | >20.1 |  |
| CN(C)c1cccc([C@H]2C[C@@]3(C)[C@@H](CC[C@@]3(O)C#C[Si](C)(C)C)[C@@H]3CCC4=CC(=O)CCC4=C32)c1 [Compound 54] | 6 ± 1.1 µM |  | 94.1 ± 7.1% | > 100 µM | >16.7 |  |
